According to PMC5675407, “Sugar analog synthesis by in vitro biocatalytic cascade: A comparison of alternative enzyme complements for dihydroxyacetone phosphate production as a precursor to rare chiral sugar synthesis” (PLoS ONE, 2017):

Target: T1, FruASc (Staphylococcus carnosus, UniProt Q07159)
T1 construct: gene fda; recombinant from pETScFruA, E. coli
Assay: LC-MS of aldol product in enzyme cascade
Type: biochemical
Settings: DHAP made in situ; acetaldehyde or glyceraldehyde-3-phosphate 10 mM, pH 7.9, 22 °C

T1 sequence (Q07159 2-296): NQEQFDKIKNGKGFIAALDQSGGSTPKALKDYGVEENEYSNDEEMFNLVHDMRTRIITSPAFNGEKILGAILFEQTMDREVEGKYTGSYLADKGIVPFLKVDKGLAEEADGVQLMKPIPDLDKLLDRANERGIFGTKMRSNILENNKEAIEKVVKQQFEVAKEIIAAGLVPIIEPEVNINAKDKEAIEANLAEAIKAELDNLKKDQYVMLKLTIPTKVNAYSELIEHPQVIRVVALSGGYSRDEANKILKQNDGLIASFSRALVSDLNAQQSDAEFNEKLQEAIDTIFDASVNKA

With `O=C(CO)COP(=O)(O)O` [DHAP] the “LC-MS of aldol product in enzyme cascade” value was “as DHAP was consumed by the aldolase reaction, greater conversion to DHAP occurred”.
